Measured values from US20260176266A1, “PIPERIDINOPYRIMIDINE DERIVATIVE, PREPARATION METHOD THEREFOR AND USE THEREOF IN MEDICINE” (TUOJIE BIOTECH (SHANGHAI) CO., LTD., priority 2022, published 2026).

What was measured:
CDK2/CyclinE1 = CDK2/CyclinE1 (Homo sapiens, UniProt P24941); experiment: ADP-Glo kinase assay, CDK2; type: biochemical; conditions: 1 nM CDK2/CyclinE1, 15 μM ATP (Km), Histone H1, 60 min; read-out: inhibitory activity (IC50, nM) CDK2
Protocol: (§1) The ADP-Glo kinase assay was used for testing the activity of CDKs. The compounds were diluted in 384-well plates using Echo. The starting concentration was 10 μM and was 3-fold diluted to obtain 10 concentration points, each tested in duplicate, and the final concentration of DMSO in the assay system was 1%. CDK solutions (the final concentrations were 16.5 nM CDK1/CyclinB, 1 nM CDK2/CyclinE1, 16.3 nM CDK4/CyclinD1, 11.5 nM CDK5/p25, 15.7 nM CDK6/CyclinD3, 80 nM CDK7/Cyclin H/MAT1, 15.3 nM CDK9/Cyclin T1, and 150 nM CDK12/CyclinK) prepared in assay buffer were added at 2.5 μL, and the enzymes and compounds were pre-incubated at room temperature for 10 min. ATP (the concentration was Km) & substrate solutions (20 μM ATP & 0.1 mg/mL Histone H1 Protein for CDK1/CyclinB, 15 μM ATP & 0.1 mg/mL Histone H1 Protein for CDK2/CyclinE1, 200 μM ATP & 0.2 mg/mL DYRKtide peptide for CDK4/CyclinD1, 10 μM ATP & 0.1 mg/mL Histone H1 Protein for CDK5/p25, 200 μM ATP & 0.1 mg/mL Histone H1 Protein for CDK6/CyclinD3, 70 μM ATP & 0.2 mg/mL MBP for CDK7/Cyclin H/MAT1, 60 μM ATP & 0.2 mg/mL PDKtide for CDK9/Cyclin T1, and 20 μM ATP & 80 μM pS7-CTD peptide for CDK12/CyclinK) prepared in assay buffer were added at 2.5 μL. After thorough mixing, the plates were incubated at room temperature, with CDK1/4/9/12/13 incubated for 120 min and CDK2/5/6/7 incubated for 60 min. ADP-Glo reagents were added at 4 μL, and the plates were incubated at room temperature for 40 min. Kinase detection reagents were added at 8 μL, and the plates were incubated at room temperature for 40 min. Readings were taken using an Envision multimode microplate reader. Data were processed using GraphPad Prism 8, and IC50 was calculated.
(§2) [formula] • X: the logarithm of the compound concentration; Y: % inhibition.

CDK7/Cyclin H/MAT1 = CDK7/Cyclin H/MAT1 (Homo sapiens, UniProt P50613); experiment: ADP-Glo kinase assay, CDK7; type: biochemical; conditions: 80 nM CDK7/Cyclin H/MAT1, 70 μM ATP (Km), MBP, 60 min; read-out: inhibitory activity (IC50, nM) CDK7
CDK7/Cyclin H/MAT1, sequence (P50613 whole entry, species assumed): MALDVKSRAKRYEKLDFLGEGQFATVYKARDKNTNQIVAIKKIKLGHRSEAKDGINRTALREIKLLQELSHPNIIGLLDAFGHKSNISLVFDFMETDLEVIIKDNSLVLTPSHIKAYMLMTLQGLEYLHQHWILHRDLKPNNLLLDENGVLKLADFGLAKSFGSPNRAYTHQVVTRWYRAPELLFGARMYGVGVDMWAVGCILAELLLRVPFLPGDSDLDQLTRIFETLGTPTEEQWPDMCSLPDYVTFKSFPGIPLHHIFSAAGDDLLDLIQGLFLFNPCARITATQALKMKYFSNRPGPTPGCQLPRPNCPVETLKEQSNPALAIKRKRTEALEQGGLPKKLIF
CDK7/Cyclin H/MAT1, sequence (P51946 whole entry partner, species assumed): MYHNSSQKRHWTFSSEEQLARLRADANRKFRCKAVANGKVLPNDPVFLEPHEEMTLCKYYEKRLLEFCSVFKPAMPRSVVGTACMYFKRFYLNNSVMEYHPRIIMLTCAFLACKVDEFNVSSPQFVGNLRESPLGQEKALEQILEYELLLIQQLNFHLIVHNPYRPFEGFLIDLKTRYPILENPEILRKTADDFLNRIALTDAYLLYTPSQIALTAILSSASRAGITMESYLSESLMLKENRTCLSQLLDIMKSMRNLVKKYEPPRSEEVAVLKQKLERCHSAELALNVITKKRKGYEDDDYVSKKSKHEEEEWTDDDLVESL
CDK7/Cyclin H/MAT1, sequence (P51948 whole entry partner, species assumed): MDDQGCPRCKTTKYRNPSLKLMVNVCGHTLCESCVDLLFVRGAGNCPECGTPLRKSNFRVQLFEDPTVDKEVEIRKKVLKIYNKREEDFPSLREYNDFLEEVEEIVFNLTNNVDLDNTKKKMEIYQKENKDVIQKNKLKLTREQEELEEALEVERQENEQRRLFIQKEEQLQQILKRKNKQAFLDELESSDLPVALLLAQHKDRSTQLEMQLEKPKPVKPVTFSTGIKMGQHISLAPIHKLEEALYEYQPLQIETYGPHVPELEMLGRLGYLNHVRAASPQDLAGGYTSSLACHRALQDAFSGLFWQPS
Protocol: as §1, §2

[1] = Human liver microsome metabolism study; type: in vitro ADME; conditions: human liver microsomes
Protocol: 222.5 μL of human liver microsomes (protein concentration: 1 mg/mL) and 25 μL of NADPH ([…]) were added to an incubation plate and pre-heated for 10 min. 2.5 μL of control compound and test compound (100 μM) were added.
[…] The reaction was stopped by adding 5 volumes of cold acetonitrile containing IS (100 nM alprazolam, 200 nM caffeine, and 100 nM tolbutamide). The reaction mixture was centrifuged, and 100 μL of the supernatant was collected and mixed with 100 μL of ultrapure H2O. Then the mixture was analyzed by LC-MS/MS.
The slope value k was determined by linear regression of the natural logarithm of a curve of the parent drug remaining percentage versus incubation time.
The in-vitro half-life (in-vitro T1/2) was determined by the slope value:
Using the following equation (the average of repeated measurements), the in-vitro T½ (min) was converted to the in-vitro intrinsic clearance rate (in-vitro CLint, in μL/min/mg protein): […]

Compound: C[C@@H]1Cc2cnc(NCc3ccn(C)n3)nc2CN1C(=O)[C@H]1CCN(C)C[C@@H]1c1ccccc1 [Janssen-01, reference compound]
- IC50 (CDK2/CyclinE1): 933 nM
- IC50 (CDK7/Cyclin H/MAT1): 25.2 nM
- half-life at 1 μM ([1]; in-vitro half-life): 1.22 h
- microsomal CLint at 1 μM ([1]; in-vitro intrinsic clearance): 19 µL/min/mg
- Remaining amount % at 0.5 min ([1]; incubation 0.5 min): 100.00%
- Remaining amount % at 5 min ([1]; incubation 5 min): 91.32%
- Remaining amount % at 15 min ([1]; incubation 15 min): 78.60%
- Remaining amount % at 30 min ([1]; incubation 30 min): 68.95%
- Remaining amount % at 60 min ([1]; incubation 60 min): 55.59%
